# Source: US8088806B2 (Achillion Pharmaceuticals, Inc., priority 2005, dated 2012)
# Test system: HCV replicon
# Assay: Replicon based assay of HCV replication inhibition (NPT ELISA)
# Format: cell-based, Hepatitis C virus
# Conditions: Hepatitis C virus, Huh-7, 72 h, Table III; Huh-7 HCV replicon-containing cells, three days; read-out: Activity
# Procedure, shortened: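 Huh-7 cells carrying a bicistronic HCV replicon (neo, EMCV-IRES-driven NS3–NS5B) treated overnight after seeding with usually 6 concentrations, 10 to 0.03 micromolar, for three days at 37° C without G418. Replication read as NPT level by captured ELISA; matched-DMSO wells and interferon alpha as controls.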
row,SMILES,EC50 [nM]
1,"CCCCCCCc1ccc(Nc2nc(-c3ccc(-c4ccccn4)s3)cs2)cc1 [compound 564, N-(4-heptylphenyl)-4-(5-(pyridin-2-yl)thiophen-2-yl)thiazol-2-amine]",< 1000
2,"CCCCCCCc1ccc(Nc2nc(-c3cc4ccccc4o3)cs2)cc1 [compound 565, 4-(benzofuran-2-yl)-N-(4-heptylphenyl)thiazol-2-amine]",> 10000
3,"CCCCCCCc1ccc(Nc2nc(-c3sc(-c4cnccn4)nc3C)cs2)cc1 [compound 566, N-(4-heptylphenyl)-4-(4-methyl-2-(pyrazin-2-yl)thiazol-5-yl)thiazol-2-amine]",< 1000
4,"CCCCCCCc1ccc(Nc2nc(-c3ccc(Cl)cc3)cs2)cc1 [compound 567, 4-(4-chlorophenyl)-N-(4-heptylphenyl)thiazol-2-amine]",< 1000
5,"CCCCCCCCN(C)c1ccc(Nc2nc(-c3ccc(F)cc3)cs2)cc1C(F)(F)F [compound 568, 2-(trifluoromethyl)-N^4-(4-(4-fluorophenyl)thiazol-2-yl)-N^1-methyl-N^1-octylbenzene-1,4-diamine]",< 1000
6,"CCCCCCCCN(C)c1ccc(Nc2nc(-c3ccc(O)c(C(N)=O)c3)cs2)cc1C(F)(F)F [compound 569, 5-(2-(4-(N-methyl-N-octylamino)-3-(trifluoromethyl)phenylamino)thiazol-4-yl)-2-hydroxybenzamide]",< 1000
7,"CCCCCCCCN(C)c1ccc(Nc2nc(-c3ccc(Cl)s3)cs2)cc1C(F)(F)F [compound 570, N^4-(4-(5-chlorothiophen-2-yl)thiazol-2-yl)-2-(trifluoromethyl)-N^1-methyl-N^1-octylbenzene-1,4-diamine]",< 1000
8,"CCCCCCCCN(C)c1ccc(Nc2nc(-c3ccc(O)c(O)c3)cs2)cc1C(F)(F)F [compound 571, 4-(2-(4-(N-methyl-N-octylamino)-3-(trifluoromethyl)phenylamino)thiazol-4-yl)benzene-1,2-diol]",< 1000
9,"CCCCCCCCN(C)c1ccc(Nc2nc(-c3ccc4c(c3)NC(=O)CO4)cs2)cc1C(F)(F)F [compound 572, 6-(2-(4-(N-methyl-N-octylamino)-3-(trifluoromethyl)phenylamino)thiazol-4-yl)-2H-benzo[b][1,4]oxazin-3(4H)-one]",1000 to 10000
10,"CCCCCCCCN(C)c1ccc(Nc2nc(-c3ccc4[nH]c(=O)oc4c3)cs2)cc1C(F)(F)F [compound 573, 6-(2-(4-(N-methyl-N-octylamino)-3-(tnfluoromethyl)phenylamino)azol-4-yl)benzo[d]oxazol-2(3H)-one]",< 1000
11,"CCCCCCCCN(C)c1ccc(Nc2nc(-c3ccc(OCC(=O)O)cc3)c(C)s2)cc1C(F)(F)F [compound 574, 2-(4-(2-(4-(N-methyl-N-octylamino)-3-(trifluoromethyl)phenylamino)-5-methylthiazol-4-yl)phenoxy)acetic acid]",< 1000
12,"CCCCCCCCN(C)c1ccc(Nc2nc(-c3ccc(-c4ccccn4)s3)cs2)cc1C(F)(F)F [compound 576, 2-(trifluoromethyl)-N^1-methyl-N^1-octyl-N^4-(4-(5-(pyridin-2-yl)thiophen-2-yl)thiazol-2-yl)benzene-1,4-diamine]",< 1000
13,"CCCCCCCCN(C)c1ccc(Nc2nc(-c3cc4ccccc4o3)cs2)cc1C(F)(F)F [compound 577, N^4-(4-(benzofuran-2-yl)thiazol-2-yl)-2-(trifluoromethyl)-N^1-methyl-N^1-octylbenzene-1,4-diamine]",1000 to 10000
14,"CCCCCCCCN(C)c1ccc(Nc2nc(-c3sc(-c4cnccn4)nc3C)cs2)cc1C(F)(F)F [compound 578, 2-(trifluoromethyl)-N^1-methyl-N^4-(4-(4-methyl-2-(pyrazin-2-yl)thiazol-5-yl)thiazol-2-yl)-N^1-octylbenzene-1,4-diamine]",1000 to 10000
15,"CCCCCCCCN(C)c1ccc(Nc2nc(-c3ccc(Cl)cc3)cs2)cc1C(F)(F)F [compound 579, N^4-(4-(4-chlorophenyl)thiazol-2-yl)-2-(trifluoromethyl)-N^1-methyl-N^1-octylbenzene-1,4-diamine]",< 1000
16,"CCCCCCCCOc1ccc(Nc2nc(-c3ccc(F)cc3)cs2)cc1C(F)(F)F [compound 580, N-(3-(trifluoromethyl)-4-(octyloxy)phenyl)-4-(4-fluorophenyl)thiazol-2-amine]",< 1000
17,"CCCCCCCCOc1ccc(Nc2nc(-c3ccc(O)c(C(N)=O)c3)cs2)cc1C(F)(F)F [compound 581, 5-(2-(3-(trifluoromethyl)-4-(octyloxy)phenylamino)thiazol-4-yl)-2-hydroxybenzamide]",< 1000
18,"CCCCCCCCOc1ccc(Nc2nc(-c3ccc(Cl)s3)cs2)cc1C(F)(F)F [compound 582, 4-(5-chlorothiophen-2-yl)-N-(3-(trifluoromethyl)-4-(octyloxy)phenyl)thiazol-2-amine]",< 1000
19,"CCCCCCCCOc1ccc(Nc2nc(-c3ccc(O)c(O)c3)cs2)cc1C(F)(F)F [compound 583, 4-(2-(3-(trifluoromethyl)-4-(octyloxy)phenylamino)thiazol-4-yl)benzene-1,2-diol]",< 1000
20,"CCCCCCCCOc1ccc(Nc2nc(-c3ccc4c(c3)NC(=O)CO4)cs2)cc1C(F)(F)F [compound 584, 6-(2-(3-(trifluoromethyl)-4-(octyloxy)phenylamino)thiazol-4-yl)-2H-benzo[b][1,4]oxazin-3(4H)-one]",< 1000

row,SMILES,EC50 [nM]
1,"CCCCCCCCOc1ccc(Nc2nc(-c3ccc4[nH]c(=O)oc4c3)cs2)cc1C(F)(F)F [compound 585, 6-(2-(3-(trifluoromethyl)-4-(octyloxy)phenylamino)thiazol-4-yl)benzo[d]oxazol-2(3H)-one]",< 1000
2,"CCCCCCCCOc1ccc(Nc2nc(-c3ccc(OCC(=O)O)cc3)c(C)s2)cc1C(F)(F)F [compound 586, 2-(4-(2-(3-(trifluoromethyl)-4-(octyloxy)phenylamino)-5-methylthiazol-4-yl)phenoxy)acetic acid]",< 1000
3,"CCCCCCCCOc1ccc(Nc2nc(-c3ccccn3)cs2)cc1C(F)(F)F [compound 587, N-(3-(trifluoromethyl)-4-(octyloxy)phenyl)-4-(pyridin-2-yl)thiazol-2-amine]",< 1000
4,"CCCCCCCCOc1ccc(Nc2nc(-c3ccc(-c4ccccn4)s3)cs2)cc1C(F)(F)F [compound 588, N-(3-(trifluoromethyl)-4-(octyloxy)phenyl)-4-(5-(pyridin-2-yl)thiophen-2-yl)thiazol-2-amine]",< 1000
5,"CCCCCCCCOc1ccc(Nc2nc(-c3cc4ccccc4o3)cs2)cc1C(F)(F)F [compound 589, 4-(benzofuran-2-yl)-N-(3-(trifluoromethyl)-4-(octyloxy)phenyl)thiazol-2-amine]",< 1000
6,"CCCCCCCCOc1ccc(Nc2nc(-c3sc(-c4cnccn4)nc3C)cs2)cc1C(F)(F)F [compound 590, N-(3-(trifluoromethyl)-4-(octyloxy)phenyl)-4-(4-methyl-2-(pyrazin-2-yl)thiazol-5-yl)thiazol-2-amine]",< 1000
7,"CCCCCCCCOc1ccc(Nc2nc(-c3ccc(Cl)cc3)cs2)cc1C(F)(F)F [compound 591, 4-(4-chlorophenyl)-N-(3-(trifluoromethyl)-4-(octyloxy)phenyl)thiazol-2-amine]",< 1000
8,"CCCCCOc1ccc(Nc2nc3c(s2)CCc2ccncc2-3)cc1C(F)(F)F [compound 592, N-(3-(trifluoromethyl)-4-(pentyloxy)phenyl)-4,5-dihydrothiazolo[5,4-h]isoquinolin-2-amine]",< 1000
9,"CCCCCCCCOc1ccc(Nc2nc3c(s2)CCc2ccncc2-3)cc1 [compound 593, 4,5-dihydro-N-(4-(octyloxy)phenyl)thiazolo[5,4-h]isoquinolin-2-amine]",< 1000
10,CCCCCOc1ccc(Nc2nc3c(s2)CCc2ncccc2-3)cc1C(F)(F)F [compound 594],< 1000
11,"CCCCCCCCOc1ccc(Nc2nc3c(s2)CCc2ncccc2-3)cc1 [compound 595, 4,5-dihydro-N-(4-(octyloxy)phenyl)thiazolo[4,5-f]quinolin-2-amine]",1000 to 10000
12,"CCCCCCCCOc1ccc(Nc2nc(-c3cnccn3)cs2)cc1C(F)(F)F [compound 596, N-(3-(trifluoromethyl)-4-(octyloxy)phenyl)-4-(pyrazin-2-yl)thiazol-2-amine]",< 1000
13,"CCCC(CCC)Oc1ccc(Nc2nc(-c3cnccn3)cs2)cc1C(F)(F)F [compound 597, N-(3-(trifluoromethyl)-4-(heptan-4-yloxy)phenyl)-4-(pyrazin-2-yl)thiazol-2-amine]",< 1000
14,"CCCCCCCCOc1ccc(Nc2nc(-c3cnccn3)cs2)cc1 [compound 598, N-(4-(octyloxy)phenyl)-4-(pyrazin-2-yl)thiazol-2-amine]",< 1000
15,"CCCCCOc1ccc(Nc2nc(/C=C/c3ccc(F)c(F)c3)cs2)cc1C(F)(F)F [compound 599, 4-(3,4-difluorostyryl)-N-(3-(trifluoromethyl)-4-(pentyloxy)phenyl)thiazol-2-amine]",< 1000
16,"CCCCCOc1ccc(Nc2nc(/C=C/c3ccc(OC)cc3)cs2)cc1C(F)(F)F [compound 600, 4-(4-methoxystyryl)-N-(3-(trifluoromethyl)-4-(pentyloxy)phenyl)thiazol-2-amine]",< 1000
17,"CCCCCOc1ccc(Nc2nc(/C=C/c3ccc(Cl)cc3)cs2)cc1C(F)(F)F [compound 601, 4-(4-chlorostyryl)-N-(3-(trifluoromethyl)-4-(pentyloxy)phenyl)thiazol-2-amine]",< 1000
18,"CCCCCCCOc1ccc(C(=O)Nc2nc(-c3cccnc3)cs2)cc1 [compound 602, 4-(heptyloxy)-N-(4-(pyridin-3-yl)thiazol-2-yl)benzamide]",> 10000
19,"CCCCCOc1ccc(Nc2nc(-c3cncc(C(=O)OCC)c3)cs2)cc1C(F)(F)F [compound 603, ethyl 5-(2-(3-(trifluoromethyl)-4-(pentyloxy)phenylamino)thiazol-4-yl)pyridine-3-carboxylate]",1000 to 10000
20,"CCCCCCCCOc1ccc(Nc2nccs2)cc1C(F)(F)F [compound 605, N-(3-(trifluoromethyl)-4-(octyloxy)phenyl)thiazol-2-amine]",< 1000
